These results are taken from US20220184093A1, “ANTI-VIRAL ACTIVITY OF VPS34 INHIBITORS” (priority 2020, published 2022).

pIC50: −log10 of the molar value. Where only a bound is given, the exact number is not on record here.

The test system of data set [1] is coronavirus USA_WA1/2020 SARS CoV-2. As to the kind of experiment: SARS CoV-2 CPE assay for antiviral activity (Vero E6 host cells, Cell Titer-Glo). Format: cell-based. The following applies: Vero C1008, 10-point dose response, high concentration 15 μM, 72 hours, read-out: IC50 for inhibition of SARS CoV-2 mediated cell killing.
A short description of data set [2]: in vitro. The following applies: African green monkey.
Data set [3] is described as follows: in vitro. The following applies: human.
In another data set the test system is SARS-CoV-2. As to the kind of experiment: microbe, parasite or virus in culture. The following applies: Severe acute respiratory syndrome coronavirus 2, A549, 48 h; read-out: IC50 for inhibition of SARS CoV-2 mediated cell killing. It counts as cell-based.

Turning to `C[C@@H]1COCCN1c1cc(N2CCN(S(=O)(=O)N3CCCC3)CC2C(F)(F)F)[nH]c(=O)c1` (stereo partly shown) [Compound 1], the results for the pIC50 (in data set [1]; with SARS-CoV-2) were 6.05 and 6.80, respectively. For the same compound, the values for the CC50 in “in vitro [2]” and in “in vitro [3]” were 29 µM and 24 µM, respectively.
For `C[C@@H]1COCCN1c1cc(N2CCN(S(=O)(=O)N(C)C)CC2C(F)(F)F)[nH]c(=O)c1` (stereo partly shown) [Compound 4], the pIC50 was 5.95 in data set [1] and 6.43 in the data set with SARS-CoV-2. The CC50 in the data set “in vitro [2]” and in “in vitro [3]” was over 10 µM each time.
Turning to `C[C@@H]1COCCN1c1cc(N2CCN(S(=O)(=O)c3cncc(F)c3)CC2C(F)(F)F)[nH]c(=O)c1` (stereo partly shown) [Compound 2], the values for the pIC50 (in data set [1]; in the data set with SARS-CoV-2) were 6.39 and 6.92, respectively. Further, the CC50 in “in vitro [2]” and in “in vitro [3]” was over 10 µM in each case.
In the case of `C[C@@H]1COCCN1c1cc(N2CCN(S(=O)(=O)Cc3ccc(F)cc3)CC2C(F)(F)F)[nH]c(=O)c1` (stereo partly shown) [Compound 3], the pIC50 was 6.65 in data set [1] and 7.41 with SARS-CoV-2. In addition, the CC50 in “in vitro [2]” was over 10 µM; in “in vitro [3]” it was 5160 µM.
